Data: patent publication US6395738B1, “Benzofuran derivatives” (Kyowa Hakko Kogyo Co., Ltd., priority 1997, dated 2002)
Where a name gives a salt, the structure may show the parent alone.

Key:
TNF α = test: Inhibitory activity on production of TNF α in mouse model with LPS-induced sepsis; format: in vivo, BALB/c male mice; conditions: for Ratio of inhibition (%) of TNF α production: Dose (mg) 30, orally administered 90 minutes before LPS i.v., serum TNF α by ELISA 1 hour after LPS
[1] = biological target: T1, Recombinant Human PDE IV Enzyme (HSPDE4A) (Homo sapiens, UniProt P27815); test: Inhibition test on recombinant human PDE IV enzyme; format: biochemical; conditions: [3H]cAMP substrate
T1 construct: except that 223 amino acids have been deleted from the N-terminal thereof; made in house; host or cells: E. coli
Protocol: Inhibition Test on Recombinant Human PDE IV Enzyme
Human phosphodiesterase cDNA (HSPDE4A) was isolated from testicles. Its predicted amino acid sequence is identical with the sequence (HSPDE4A5) reported by Bolger, G. et al. (Mol. Cell. Biol., 6558 (1993)) except that 223 amino acids have been deleted from the N-terminal thereof. This recombinant protein was expressed by an E. coli expression plasmid and then purified. The PDE activity was measured in the following 2-step process according to the method of Kincaid, R. and Manganiello, V. [Method. Enzymol., 159, 457 (1988)]. The substrate used was [^3H]cAMP (final concentration: […]), and the reaction was performed in a standard mixture containing N,N-bis(2-hydroxyethyl)-2-aminoethanesulfonic acid (50 mmol/l, pH 7.2), MgCl2 (1 mmol/l) and soybean trypsin inhibitor (0.1 mg/ml). The reaction was initiated by adding the enzyme thereto, and the mixture was incubated at 30° C. for 10 to 30 minutes. The reaction was quenched by hydrochloric acid, and the formed 5′-AMP was completely decomposed with […]. This sample was subjected to chromatography on DEAE-Sephadex A-25, and the eluted [^3H]adenosine was counted with a scintillation counter. The test compound was added after dissolved (concentration: 1.7%) in DMSO.

Male Sunkus murinus = test: Vomiting test on male Sunkus; format: in vivo
Protocol: Vomiting Test on Male Sunkus
Male Sunkus murinus weighing about 60 g, 5 to 15 animals/group, were used in the test According to the method of Matsuki et al. (Japan J. Pharmacol., 48, 303 (1988)), each Sunkus animal was isolated and left in a wire-netting cage (15 cm width×21 cm length×15 cm height). Each test compound was suspended in physiological saline containing 0.5% Tween 80 and then intraperitoneally (i.p.) administered into each animal in a dose of 10 μl/g. […] The results were expressed in the number of animals with vomiting/the number of tested animals in the group given the test compound.
Compounds P and Q were used as the comparative compounds.

[2] = concentration of test compound 10^−7 mol/L
[3] = concentration of test compound 10^−8 mol/L

T1 sequence (P27815 224-886 limits assumed): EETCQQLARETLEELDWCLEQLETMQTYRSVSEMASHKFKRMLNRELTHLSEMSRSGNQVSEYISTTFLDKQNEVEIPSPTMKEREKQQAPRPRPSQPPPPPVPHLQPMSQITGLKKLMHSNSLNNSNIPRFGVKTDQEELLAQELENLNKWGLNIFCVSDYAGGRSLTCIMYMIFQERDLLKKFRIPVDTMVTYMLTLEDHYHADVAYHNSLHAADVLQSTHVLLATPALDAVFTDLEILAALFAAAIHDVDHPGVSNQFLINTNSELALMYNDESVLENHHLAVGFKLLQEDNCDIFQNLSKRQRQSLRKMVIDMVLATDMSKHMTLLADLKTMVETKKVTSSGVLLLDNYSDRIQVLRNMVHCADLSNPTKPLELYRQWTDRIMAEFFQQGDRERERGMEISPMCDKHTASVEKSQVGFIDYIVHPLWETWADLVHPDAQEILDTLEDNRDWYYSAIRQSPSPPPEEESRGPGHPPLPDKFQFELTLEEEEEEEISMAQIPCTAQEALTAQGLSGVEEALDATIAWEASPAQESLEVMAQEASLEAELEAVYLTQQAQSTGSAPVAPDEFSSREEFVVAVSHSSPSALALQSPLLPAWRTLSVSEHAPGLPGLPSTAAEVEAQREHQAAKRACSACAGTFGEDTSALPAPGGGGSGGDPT

Structure (SMILES) | melting point | Ratio of inhibition (%) [1, 2] | Ratio of inhibition (%) [1, 3] | Ratio of inhibition (%) of TNF α production (TNF α) | other results
COc1ccc(C(=O)Cc2c(Cl)cncc2Cl)c2cc(C(=O)N3CCNCC3)oc12.Cl [Compound 24, 4-[2-(3,5-Dichloro-4-pyridyl)-1-oxoethyl]-2-(1-piperazinyl)carbonyl-7-methoxybenzofuran Monohydrochloride] | – | – | – | 47% | –
COc1ccc(C(=O)Cc2c(Cl)cncc2Cl)c2cc(C(=O)N3CC(C)N(CCO)C(C)C3)oc12 (stereo not drawn) [Compound 26, 4-[2-(3,5-Dichloro-4-pyridyl)-1-oxoethyl]-2-(3,5-dimethyl-4-hydroxyethyl-1-piperazinyl)carbonyl-7-methoxybenzofuran] | 187 to 188 °C | – | – | – | –
COc1ccc(C(=O)Nc2c(Cl)cncc2Cl)c2cc(C(=O)N3CC(C)N(C)C(C)C3)oc12 (stereo not drawn) [Compound 10, 4-(3,5-Dichloro-4-pyridyl)carbamoyl-7-methoxy-2-(3,4,5-trimethyl-1-piperazinyl)carbonylbenzofuran] | 234 to 236 °C | 75% | 9% | 46% | –
COc1ccc(C(=O)Cc2ccncc2)c2c1OC1(CCCC1)C2 [Compound P, 7-methoxy-4-[1-oxo-2-(4-pyridyl)ethyl]-spiro[2,3-dihydrobenzofuran-2,1′-cyclopentane].hydrochloride, reference compound] | – | – | – | 81% | inhibitory activity on production of TNF α (in words) (TNF α; summary of Table 3): high inhibitory activity; Number of animals with vomiting/Number of tested animals (Male Sunkus murinus; Dose (mg) 10, intraperitoneal, observed for 1 hour): 5/5; vomiting as a side effect (in words) (Male Sunkus murinus; summary of Table 4): caused vomiting
COc1ccc(C(=O)Cc2c(Cl)cncc2Cl)c2cc(C(=O)N3CCN(C(C)C)CC3)oc12.O=C(O)/C=C/C(=O)O [Compound 16, 4-[2-(3,5-Dichloro-4-pyridyl)-1-oxoethyl]-2-(4-isopropyl-1-piperazinyl)carbonyl-7-methoxybenzofuran Monofumarate] | 195 to 196 °C | – | – | 67% | –
COc1ccc(CCc2c(Cl)cncc2Cl)c2cc(C(=O)N3CCN(C)CC3)oc12.O=C(O)/C=C/C(=O)O | 186 to 187 °C | – | – | – | –
COc1ccc(C(=O)Nc2c(Cl)cncc2Cl)c2cc(C(=O)N3CCNCC3)oc12 [Compound 12, 4-(3,5-Dichloro-4-pyridyl)carbamoyl-7-methoxy-2-(1-piperazinyl)carbonylbenzofuran] | – | – | – | 27% | –
COc1ccc(C(=O)Cc2c(Cl)cncc2Cl)c2cc(C(=O)N3CC(C)N(C)C(C)C3)oc12 (stereo not drawn) [Compound 25, 4-[2-(3,5-Dichloro-4-pyridyl)-1-oxoethyl]-7-methoxy-2-(3,4,5-trimethyl-1-piperazinyl)carbonylbenzofuran] | 173 to 174 °C | – | – | 53% | –
COC(=O)c1ccc(C(=O)Nc2c(Cl)cncc2Cl)c2cc(N3CCN(C(C)CO)CC3)oc12 (stereo not drawn) [Compound 4, 4-(3,5-Dichloro-4-pyridyl)carbamoyl-2-[4-(1-hydroxy-2-propyl)-1-piperazinyl]-7-methoxycarbonylbenzofuran] | 148 to 150 °C | 85% | 28% | – | –
CCN1CCN(c2cc3c(C(=O)Cc4c(Cl)cncc4Cl)ccc(C(=O)OC)c3o2)CC1.O=C(O)/C=C/C(=O)O [Compound 15, 4-[2-(3,5-Dichloro-4-pyridyl)-1-oxoethyl]-2-(4-ethyl-1-piperazinyl)-7-methoxycarbonylbenzofuran Monofumarate] | 196 to 198 °C | – | – | 61% | –
COc1ccc(CCc2c(Cl)cncc2Cl)c2cc(C(=O)N3CCN(CCO)CC3)oc12.O=C(O)/C=C/C(=O)O | 184 to 185 °C | – | – | – | –

Now from value to molecule, other results behind:

melting point | Ratio of inhibition (%) [1, 2] | Ratio of inhibition (%) [1, 3] | Structure (SMILES) | Ratio of inhibition (%) of TNF α production (TNF α) | other results
120 to 121 °C | – | – | COc1ccc(C(=O)Cc2c(Cl)cncc2Cl)c2cc(C(=O)N3CCN(CCCCO)CC3)oc12 [Compound 21, 4-[2-(3,5-Dichloro-4-pyridyl)-1-oxoethyl]-2-[4-(4-hydroxybutyl)-1-piperazinyl]carbonyl-7-methoxybenzofuran] | 28% | –
192 to 194 °C | 89% | 41% | CCC(CO)N1CCN(C(=O)c2cc3c(C(=O)Nc4c(Cl)cncc4Cl)ccc(OC)c3o2)CC1 (stereo not drawn) [Compound 5, 4-(3,5-Dichloro-4-pyridyl)carbamoyl-2-[4-(1-hydroxy-2-butyl)-1-piperazinyl]carbonyl-7-methoxybenzofuran] | 53% | –
162 to 163 °C | – | – | COc1ccc(C(=O)Cc2c(Cl)cncc2Cl)c2cc(C(=O)N3CCN(CCCO)CC3)oc12 [Compound 20, 4-[2-(3,5-Dichloro-4-pyridyl)-1-oxoethyl]-2-[4-(3-hydroxypropyl)-1-piperazinyl]carbonyl-7-methoxybenzofuran] | 40% | –
150 to 152 °C | – | – | CCC(CO)N1CCN(C(=O)c2cc3c(C(=O)Cc4c(Cl)cncc4Cl)ccc(OC)c3o2)CC1 (stereo not drawn) [Compound 19, 4-[2-(3,5-Dichloro-4-pyridyl)-1-oxoethyl]-2-[4-(1-hydroxy-2-butyl)-1-piperazinyl]carbonyl-7-methoxybenzofuran] | 68% | –
180 to 182 °C | 81% | 24% | COc1ccc(C(=O)Nc2c(Cl)cncc2Cl)c2cc(C(=O)N3CCN(CCCO)CC3)oc12 [Compound 6, 4-(3,5-Dichloro-4-pyridyl)carbamoyl-2-(4-hydroxypropyl-1-piperazinyl)carbonyl-7-methoxybenzofuran] | 33% | –
132 to 133 °C | 78% | 29% | COc1ccc(C(=O)Nc2c(Cl)cncc2Cl)c2cc(C(=O)N3CCN(CCOCCO)CC3)oc12 [Compound 9, 4-(3,5-Dichloro-4-pyridyl)carbamoyl-2-{4-[2-(2-hydroxyethoxy)ethyl]-1-piperazinyl}carbonyl-7-methoxybenzofuran] | – | –
184 to 185 °C | – | – | CCOCCN1CCN(C(=O)c2cc3c(C(=O)Cc4c(Cl)cncc4Cl)ccc(OC)c3o2)CC1.O=C(O)/C=C/C(=O)O [Compound 17, 4-[2-(3,5-Dichloro-4-pyridyl)-1-oxoethyl]-2-(4-ethoxyethyl-1-piperazinyl)carbonyl-7-methoxybenzofuran Monofumarate] | 62% | –
213 to 215 °C | – | – | COc1ccc(C(=O)Cc2c(Cl)cncc2Cl)c2cc(C(=O)N3CCN(C(CO)CO)CC3)oc12 [Compound 22, 4-[2-(3,5-Dichloro-4-pyridyl)-1-oxoethyl]-2-[4-(1,3-dihydroxy-2-propyl)-1-piperazinyl]carbonyl-7-methoxybenzofuran] | 52% | –
202 to 204 °C | 71% | 20% | CCN1CCN(C(=O)c2cc3c(C(=O)Nc4c(Cl)cncc4Cl)ccc(OC)c3o2)CC1.O=C(O)/C=C/C(=O)O [Compound 3, 4-(3,5-Dichloro-4-pyridyl)carbamoyl-2-(4-ethyl-1-piperazinyl)carbonyl-7-methoxybenzofuran monofumarate] | 50% | –
187 to 189 °C | – | – | COc1ccc(C(=O)Cc2c(Cl)cncc2Cl)c2cc(C(=O)N3CCN(C(C)CO)CC3)oc12 (stereo not drawn) [Compound 18, 4-[2-(3,5-Dichloro-4-pyridyl)-1-oxoethyl]-2-[4-(1-hydroxy-2-propyl)-1-piperazinyl]carbonyl-7-methoxybenzofuran] | 66% | –
– | 88% | 48% | COc1ccc(C(=O)Nc2c(Cl)cncc2Cl)c2cc(C(=O)N3CC(C)N(CCO)C(C)C3)oc12 (stereo not drawn) [Compound 11, 4-(3,5-Dichloro-4-pyridyl)carbamoyl-2-(3,5-dimethyl-4-hydroxyethyl-7-methoxy-1-piperazinyl)carbonylbenzofuran] | – | –
– | 83% | 35% | COc1ccc(C(=O)Nc2c(Cl)cncc2Cl)c2cc(C(=O)N3CCN(CCCCO)CC3)oc12 [Compound 7, 4-(3,5-Dichloro-4-pyridyl)carbamoyl-2-(4-hydroxybutyl-1-piperazinyl)carbonyl-7-methoxybenzofuran] | – | –
132 to 133 °C | – | – | COc1ccc(C(=O)Cc2c(Cl)cncc2Cl)c2cc(C(=O)N3CCN(CCOCCO)CC3)oc12 [Compound 23, 4-[2-(3,5-Dichloro-4-pyridyl)-1-oxoethyl]-2-{4-[2-(2-hydroxyethoxy)ethyl]-1-piperazinyl}carbonyl-7-methoxybenzofuran] | – | –
